Blank lines part the entries; values can stand above or below the compound they belong to.
How the values were obtained:
[1] = target: T1, Protein kinase C epsilon type (Homo sapiens) (UniProt Q02156); test: Selectivity interaction (Millipore kinase profiler) EUB0000124b PRKCE; conditions: at 10 µM
T1 sequence (whole entry): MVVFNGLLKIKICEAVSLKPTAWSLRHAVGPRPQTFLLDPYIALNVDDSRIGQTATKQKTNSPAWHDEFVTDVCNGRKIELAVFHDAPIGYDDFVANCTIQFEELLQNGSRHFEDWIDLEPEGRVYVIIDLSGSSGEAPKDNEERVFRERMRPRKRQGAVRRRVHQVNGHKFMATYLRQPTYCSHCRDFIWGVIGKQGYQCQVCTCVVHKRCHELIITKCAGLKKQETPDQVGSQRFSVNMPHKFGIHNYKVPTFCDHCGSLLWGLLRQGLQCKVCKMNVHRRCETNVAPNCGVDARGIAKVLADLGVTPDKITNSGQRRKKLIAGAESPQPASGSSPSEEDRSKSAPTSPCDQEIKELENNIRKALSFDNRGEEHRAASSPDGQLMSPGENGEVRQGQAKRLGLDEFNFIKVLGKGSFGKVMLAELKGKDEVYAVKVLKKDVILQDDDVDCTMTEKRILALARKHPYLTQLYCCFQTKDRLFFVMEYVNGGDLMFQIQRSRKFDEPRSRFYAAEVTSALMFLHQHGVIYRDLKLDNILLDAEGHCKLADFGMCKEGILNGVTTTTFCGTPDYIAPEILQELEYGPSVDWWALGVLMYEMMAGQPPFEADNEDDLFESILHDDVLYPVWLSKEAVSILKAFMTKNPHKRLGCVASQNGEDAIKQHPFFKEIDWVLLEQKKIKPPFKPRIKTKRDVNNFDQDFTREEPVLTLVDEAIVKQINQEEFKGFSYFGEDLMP

[2] = target: RAF proto-oncogene serine/threonine-protein kinase (Homo sapiens) (UniProt P04049); test: Selectivity interaction (KinomeScan (DiscoverX)) EUB0001049a RAF1; conditions: at 1 µM
[3] = target: Atypical kinase COQ8A, mitochondrial (Homo sapiens, UniProt Q8NI60); test: Selectivity interaction (Ambit KINOMEscan and KiNATiv profiling in Jurkat cells) EUB0000090b ADCK3; format: cell-based; conditions: at 1 µM
[4] = target: RAC-alpha serine/threonine-protein kinase (Homo sapiens, UniProt P31749)
[5] = target: Protein arginine N-methyltransferase 8 (Homo sapiens, UniProt Q9NR22); test: Selectivity interaction (Methyltransferase screen (radiometric assays, panel of 8 PRMTs, 21 protein lysine methyltransferases, 3 DNA methyltransferases, and one RNA methyltransferase)) EUB0000272b PRMT8
[6] = target: Myosin light chain kinase 2, skeletal/cardiac muscle (Homo sapiens) (UniProt Q9H1R3); test: Selectivity interaction (KinomeScan (DiscoverX)) EUB0000229b MYLK2; conditions: at 10 µM
[7] = target: T2, Protein kinase C iota type (Homo sapiens) (UniProt P41743); test: Selectivity interaction (KinomeScan (DiscoverX)) EUB0000229b PRKCI; conditions: at 10 µM
T2 sequence (whole entry): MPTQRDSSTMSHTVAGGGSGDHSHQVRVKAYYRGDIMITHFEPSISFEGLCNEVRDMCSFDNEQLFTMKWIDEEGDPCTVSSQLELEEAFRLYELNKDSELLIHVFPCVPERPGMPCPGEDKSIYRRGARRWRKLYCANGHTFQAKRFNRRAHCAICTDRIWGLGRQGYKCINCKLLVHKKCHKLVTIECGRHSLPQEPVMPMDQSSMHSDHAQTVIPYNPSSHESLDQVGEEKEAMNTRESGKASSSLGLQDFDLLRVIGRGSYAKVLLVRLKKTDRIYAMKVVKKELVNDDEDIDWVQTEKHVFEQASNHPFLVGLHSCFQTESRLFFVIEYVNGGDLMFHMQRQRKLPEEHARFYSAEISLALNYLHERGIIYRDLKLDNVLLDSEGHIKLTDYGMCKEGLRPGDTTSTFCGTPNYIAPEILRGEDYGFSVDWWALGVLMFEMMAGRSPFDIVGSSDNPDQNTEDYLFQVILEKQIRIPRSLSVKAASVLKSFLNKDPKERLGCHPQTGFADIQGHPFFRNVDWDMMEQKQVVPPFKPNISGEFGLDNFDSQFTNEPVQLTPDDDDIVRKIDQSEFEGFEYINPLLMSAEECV

[8] = target: Focal adhesion kinase 1 (Homo sapiens, UniProt Q05397); test: Selectivity interaction (KinomeScan (DiscoverX)) EUB0001079a PTK2; conditions: at 1 µM
[9] = target: SWI/SNF-related matrix-associated actin-dependent regulator of chromatin subfamily A member 4 (Homo sapiens) (UniProt P51532); test: Selectivity interaction (Human bromodomain panel (DSF assay)) EUB0000233b SMARCA4
[10] = target: Bromodomain and WD repeat-containing protein 1 (Homo sapiens) (UniProt Q9NSI6); test: Selectivity interaction (Human bromodomain panel (DSF assay)) EUB0000233b BRWD1
[11] = target: T3, Serine/threonine-protein kinase Nek11 (Homo sapiens) (UniProt Q8NG66); test: Selectivity interaction (Upstate Kinase Profiler service (Millipore)) EUB0000056c NEK11; conditions: at 1 µM
T3 sequence (whole entry): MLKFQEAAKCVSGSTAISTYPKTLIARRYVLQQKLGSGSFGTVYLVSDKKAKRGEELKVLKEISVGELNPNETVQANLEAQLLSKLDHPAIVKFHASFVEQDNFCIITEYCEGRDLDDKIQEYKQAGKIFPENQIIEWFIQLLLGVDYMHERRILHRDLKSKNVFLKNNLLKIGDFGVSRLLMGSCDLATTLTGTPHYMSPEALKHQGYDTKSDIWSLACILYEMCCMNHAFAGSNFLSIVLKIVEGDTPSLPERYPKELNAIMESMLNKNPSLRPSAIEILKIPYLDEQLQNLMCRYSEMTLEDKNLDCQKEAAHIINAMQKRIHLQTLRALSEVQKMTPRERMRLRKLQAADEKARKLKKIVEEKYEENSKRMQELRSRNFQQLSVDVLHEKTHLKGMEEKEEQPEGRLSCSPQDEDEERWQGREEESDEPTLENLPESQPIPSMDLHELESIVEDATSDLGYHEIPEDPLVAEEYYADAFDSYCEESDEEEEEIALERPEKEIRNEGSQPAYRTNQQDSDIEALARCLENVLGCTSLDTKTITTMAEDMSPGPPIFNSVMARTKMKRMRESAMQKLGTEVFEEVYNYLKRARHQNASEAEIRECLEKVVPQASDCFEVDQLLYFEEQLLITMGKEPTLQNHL

[12] = target: Fibroblast growth factor receptor 2 (Homo sapiens) (UniProt P21802); test: Selectivity interaction (KinomeScan (DiscoverX)) EUB0000045b FGFR2
[13] = target: Cyclin-dependent kinase 17 (Homo sapiens) (UniProt Q00537); test: Selectivity interaction (KinomeScan (DiscoverX)) EUB0000618a CDK17; conditions: at 10 µM
Cyclin-dependent kinase 17 (Homo sapiens), sequence (Q00537 whole entry, looked up): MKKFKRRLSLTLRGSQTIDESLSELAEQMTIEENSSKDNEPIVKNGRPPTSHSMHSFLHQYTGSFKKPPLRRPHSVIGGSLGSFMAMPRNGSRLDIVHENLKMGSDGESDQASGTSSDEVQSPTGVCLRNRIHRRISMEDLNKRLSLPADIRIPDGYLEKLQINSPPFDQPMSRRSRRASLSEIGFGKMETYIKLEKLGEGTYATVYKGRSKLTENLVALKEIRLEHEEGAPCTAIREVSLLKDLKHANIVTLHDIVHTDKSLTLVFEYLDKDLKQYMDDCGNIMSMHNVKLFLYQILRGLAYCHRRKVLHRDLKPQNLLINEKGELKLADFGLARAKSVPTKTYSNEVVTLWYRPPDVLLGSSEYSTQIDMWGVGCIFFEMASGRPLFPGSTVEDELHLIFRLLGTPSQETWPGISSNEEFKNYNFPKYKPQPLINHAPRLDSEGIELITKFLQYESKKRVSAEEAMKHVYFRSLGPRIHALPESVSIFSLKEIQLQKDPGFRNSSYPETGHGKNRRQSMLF

Protein arginine N-methyltransferase 8, sequence (Q9NR22 2-394 limits assumed): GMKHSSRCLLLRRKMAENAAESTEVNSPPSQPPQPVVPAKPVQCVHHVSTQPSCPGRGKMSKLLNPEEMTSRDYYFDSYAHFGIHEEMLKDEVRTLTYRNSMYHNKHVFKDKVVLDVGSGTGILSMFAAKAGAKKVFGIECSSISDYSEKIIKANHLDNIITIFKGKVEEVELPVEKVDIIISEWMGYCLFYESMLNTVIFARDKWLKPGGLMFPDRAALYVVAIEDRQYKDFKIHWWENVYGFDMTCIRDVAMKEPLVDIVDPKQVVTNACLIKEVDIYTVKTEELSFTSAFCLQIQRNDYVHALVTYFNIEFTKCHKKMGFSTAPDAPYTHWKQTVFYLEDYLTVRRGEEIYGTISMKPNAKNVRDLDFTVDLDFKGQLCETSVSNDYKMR
Fibroblast growth factor receptor 2 (Homo sapiens), sequence (P21802 22-821 limits assumed): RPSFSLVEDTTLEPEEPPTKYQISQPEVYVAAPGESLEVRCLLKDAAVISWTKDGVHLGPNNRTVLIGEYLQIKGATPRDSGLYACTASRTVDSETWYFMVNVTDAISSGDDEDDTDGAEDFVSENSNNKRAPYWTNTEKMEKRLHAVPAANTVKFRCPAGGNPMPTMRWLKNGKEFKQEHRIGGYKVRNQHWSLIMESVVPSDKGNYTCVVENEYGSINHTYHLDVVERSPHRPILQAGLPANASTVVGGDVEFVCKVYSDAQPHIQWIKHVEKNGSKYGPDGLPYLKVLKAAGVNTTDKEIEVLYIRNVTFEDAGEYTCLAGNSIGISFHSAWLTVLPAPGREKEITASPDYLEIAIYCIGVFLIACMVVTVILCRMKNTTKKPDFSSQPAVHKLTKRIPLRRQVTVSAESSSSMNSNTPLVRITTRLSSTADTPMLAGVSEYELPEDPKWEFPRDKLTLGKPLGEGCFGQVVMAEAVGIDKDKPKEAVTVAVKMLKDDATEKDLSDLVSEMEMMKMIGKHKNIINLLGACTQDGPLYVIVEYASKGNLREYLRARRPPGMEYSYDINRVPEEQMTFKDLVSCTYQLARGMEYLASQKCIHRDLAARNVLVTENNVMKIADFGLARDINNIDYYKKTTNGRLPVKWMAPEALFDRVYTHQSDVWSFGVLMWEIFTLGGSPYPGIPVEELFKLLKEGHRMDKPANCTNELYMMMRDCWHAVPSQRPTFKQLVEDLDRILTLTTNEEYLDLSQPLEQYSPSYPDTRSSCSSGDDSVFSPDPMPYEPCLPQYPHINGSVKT
RAF proto-oncogene serine/threonine-protein kinase (Homo sapiens), sequence (P04049 whole entry): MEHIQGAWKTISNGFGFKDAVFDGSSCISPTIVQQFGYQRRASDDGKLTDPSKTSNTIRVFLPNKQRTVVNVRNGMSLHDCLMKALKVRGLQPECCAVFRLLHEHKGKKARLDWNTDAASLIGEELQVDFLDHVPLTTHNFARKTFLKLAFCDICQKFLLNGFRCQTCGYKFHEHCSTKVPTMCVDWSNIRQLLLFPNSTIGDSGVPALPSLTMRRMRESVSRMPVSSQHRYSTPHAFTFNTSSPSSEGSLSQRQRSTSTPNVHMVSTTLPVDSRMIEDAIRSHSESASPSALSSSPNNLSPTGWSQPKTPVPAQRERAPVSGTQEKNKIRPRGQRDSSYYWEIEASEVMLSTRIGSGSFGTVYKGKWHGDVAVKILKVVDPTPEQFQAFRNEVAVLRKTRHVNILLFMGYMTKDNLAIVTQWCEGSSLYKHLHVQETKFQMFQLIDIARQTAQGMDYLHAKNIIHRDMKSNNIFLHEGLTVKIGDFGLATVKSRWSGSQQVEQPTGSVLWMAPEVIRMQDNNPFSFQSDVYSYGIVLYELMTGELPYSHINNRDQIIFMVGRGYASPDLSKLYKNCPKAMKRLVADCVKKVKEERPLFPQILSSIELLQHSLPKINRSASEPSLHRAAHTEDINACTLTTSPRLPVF
SWI/SNF-related matrix-associated actin-dependent regulator of chromatin subfamily A member 4 (Homo sapiens), sequence (P51532 whole entry): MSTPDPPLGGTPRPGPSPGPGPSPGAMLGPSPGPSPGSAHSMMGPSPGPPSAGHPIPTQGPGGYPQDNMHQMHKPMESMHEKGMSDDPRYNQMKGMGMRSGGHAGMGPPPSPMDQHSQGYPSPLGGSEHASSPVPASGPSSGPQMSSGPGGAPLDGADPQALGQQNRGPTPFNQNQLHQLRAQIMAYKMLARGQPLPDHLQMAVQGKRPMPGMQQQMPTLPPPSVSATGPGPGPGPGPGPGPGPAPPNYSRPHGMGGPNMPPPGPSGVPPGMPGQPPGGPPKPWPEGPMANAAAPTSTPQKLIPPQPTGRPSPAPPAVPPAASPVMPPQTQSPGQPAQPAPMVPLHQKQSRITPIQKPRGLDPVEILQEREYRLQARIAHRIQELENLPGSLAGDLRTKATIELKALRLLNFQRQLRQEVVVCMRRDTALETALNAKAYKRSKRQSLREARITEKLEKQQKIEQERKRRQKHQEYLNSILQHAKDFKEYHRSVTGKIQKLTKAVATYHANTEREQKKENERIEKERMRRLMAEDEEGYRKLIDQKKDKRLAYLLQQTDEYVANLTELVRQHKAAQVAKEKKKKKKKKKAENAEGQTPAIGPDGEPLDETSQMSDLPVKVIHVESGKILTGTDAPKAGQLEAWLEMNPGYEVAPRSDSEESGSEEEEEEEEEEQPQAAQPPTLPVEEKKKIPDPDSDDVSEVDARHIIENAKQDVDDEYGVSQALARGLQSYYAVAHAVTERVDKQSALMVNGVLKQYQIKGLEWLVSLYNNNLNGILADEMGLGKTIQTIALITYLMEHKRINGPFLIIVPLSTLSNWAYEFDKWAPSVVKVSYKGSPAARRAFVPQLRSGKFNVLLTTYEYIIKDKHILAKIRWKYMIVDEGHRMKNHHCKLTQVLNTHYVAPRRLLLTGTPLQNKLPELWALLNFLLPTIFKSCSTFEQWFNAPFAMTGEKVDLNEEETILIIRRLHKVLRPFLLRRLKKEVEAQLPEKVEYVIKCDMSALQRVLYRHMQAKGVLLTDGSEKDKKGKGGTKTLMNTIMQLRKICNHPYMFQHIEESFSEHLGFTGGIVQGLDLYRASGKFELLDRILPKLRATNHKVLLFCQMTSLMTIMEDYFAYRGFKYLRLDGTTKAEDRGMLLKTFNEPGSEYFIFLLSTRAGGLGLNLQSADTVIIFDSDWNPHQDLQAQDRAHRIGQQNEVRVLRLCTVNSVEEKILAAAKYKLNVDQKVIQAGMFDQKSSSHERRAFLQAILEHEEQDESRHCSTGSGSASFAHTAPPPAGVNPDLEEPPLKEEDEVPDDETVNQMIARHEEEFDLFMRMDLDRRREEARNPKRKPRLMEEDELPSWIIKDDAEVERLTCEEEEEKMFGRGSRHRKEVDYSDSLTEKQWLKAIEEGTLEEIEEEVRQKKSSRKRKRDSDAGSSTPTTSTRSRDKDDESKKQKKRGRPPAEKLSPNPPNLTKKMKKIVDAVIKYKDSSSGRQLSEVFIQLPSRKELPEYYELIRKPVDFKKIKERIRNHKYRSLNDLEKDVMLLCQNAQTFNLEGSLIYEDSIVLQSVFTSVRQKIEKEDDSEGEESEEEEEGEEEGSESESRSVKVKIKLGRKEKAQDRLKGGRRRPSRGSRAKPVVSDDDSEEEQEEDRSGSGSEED
Atypical kinase COQ8A, mitochondrial, sequence (Q8NI60 163-647 limits assumed): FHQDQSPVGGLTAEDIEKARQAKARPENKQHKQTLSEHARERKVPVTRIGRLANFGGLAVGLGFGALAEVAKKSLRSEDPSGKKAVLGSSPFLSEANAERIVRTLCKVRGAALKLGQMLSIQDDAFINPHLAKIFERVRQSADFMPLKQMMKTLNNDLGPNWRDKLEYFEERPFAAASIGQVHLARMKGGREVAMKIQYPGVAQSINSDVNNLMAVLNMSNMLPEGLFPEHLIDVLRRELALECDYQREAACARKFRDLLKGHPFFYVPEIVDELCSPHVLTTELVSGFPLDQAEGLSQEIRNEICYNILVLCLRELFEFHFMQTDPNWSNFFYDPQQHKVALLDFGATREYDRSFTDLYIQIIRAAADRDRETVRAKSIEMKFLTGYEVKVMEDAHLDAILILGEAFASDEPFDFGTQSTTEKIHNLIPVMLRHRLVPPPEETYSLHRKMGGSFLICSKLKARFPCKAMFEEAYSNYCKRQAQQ
RAC-alpha serine/threonine-protein kinase, sequence (P31749 whole entry): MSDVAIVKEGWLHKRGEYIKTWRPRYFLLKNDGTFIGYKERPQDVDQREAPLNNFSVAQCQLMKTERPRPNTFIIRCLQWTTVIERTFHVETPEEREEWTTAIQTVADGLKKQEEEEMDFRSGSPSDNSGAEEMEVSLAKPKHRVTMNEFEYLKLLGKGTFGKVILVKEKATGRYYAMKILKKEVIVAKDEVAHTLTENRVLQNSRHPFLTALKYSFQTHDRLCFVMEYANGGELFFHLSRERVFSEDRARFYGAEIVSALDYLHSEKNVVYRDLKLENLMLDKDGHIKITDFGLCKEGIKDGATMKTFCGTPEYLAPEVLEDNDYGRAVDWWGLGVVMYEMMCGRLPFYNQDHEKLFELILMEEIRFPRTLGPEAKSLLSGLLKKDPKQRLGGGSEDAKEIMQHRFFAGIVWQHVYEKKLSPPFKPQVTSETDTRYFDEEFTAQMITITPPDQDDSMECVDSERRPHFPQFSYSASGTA

% of control [1]: 103%
SMILES: CC(=O)Nc1cccc(-n2c(=O)n(C3CC3)c(=O)c3c(Nc4ccc(I)cc4F)n(C)c(=O)c(C)c32)c1

SMILES: COc1cc(Nc2nc(C)cc(-c3cnn4nc(OC)ccc34)n2)cc(C(F)(F)F)c1
% of control [2]: 100%

SMILES: CN(C)C/C=C/C(=O)Nc1ccc(C(=O)N2CCCC(Nc3ncc(Cl)c(-c4c[nH]c5ccccc45)n3)C2)cc1 (stereo not given)
% of control [3]: 90%

IC50 [4]: > 10 µM
SMILES: CCc1cccc(CC)c1NC(=O)c1nn(C)c2c1CCc1cnc(Nc3ccc(C(=O)NC4CCN(C)CC4)cc3OC(F)(F)F)nc1-2

% of activity ([5]; at 1 µM): 100%
% of activity ([5]; at 10 µM): 96.7%
SMILES: Cc1cc(C)cc([C@H]2c3cc(C)ccc3NC(=O)CN2C(=O)c2ccc(Br)s2)c1

SMILES: COc1cc(N(C)c2ccnc3ccc(C(F)(F)F)cc23)cc(OC)c1OC
% binding [6]: 75%
% binding [7]: 82%

SMILES: Nc1cnc(N2CCc3cc(S(=O)(=O)Nc4c(F)cc(Cl)cc4F)cc(N4CCCC4=O)c32)nc1 [TP-020n]
% of control [8]: 99%

dTM [9]: < 2 K
dTM [10]: < 2 K
SMILES: CN(C)CCCOc1ccc(-c2cc(NCCCn3cccn3)nc(S(C)(=O)=O)n2)cc1

% of inhibition [11]: -11%
SMILES: Cc1ccc(-c2ccc3c(ccc4sc5c(c43)NC[C@@H](C)NC5=O)n2)cn1

SMILES: C=CC(=O)Nc1cc(-n2c(=O)ccc3cnc4ccc(-c5ccc(NS(C)(=O)=O)cc5)cc4c32)ccc1C
% of control ([12]; at 1 µM): 96%
% of control ([12]; at 10 µM): 92%

SMILES: O[C@H]1CC[C@H](Nc2ncc3nc(Nc4c(F)cc(F)cc4F)n([C@H]4CCOC4)c3n2)CC1
% of control [13]: 100%

Source: ChEMBL document CHEMBL5465560, “Selectivity Literature for EUbOPEN Chemogenomic Library” (2024)
